Data on two compounds can be found in patent US6034246A, “2-arylbenzazole compounds” (Cancer Research Campaign Technology Limited, priority 1995, dated 2000).

SMILES strings stand for the structures. pIC50: −log10 of the molar value. Bounds are passed on as bounds.

Series [1] deals with L23/R. Nature of the series: in vitro inhibition of growth of human lung cancer cell line L23/R (Table 1). Type of series: cell-based. The source says: (§1) Tables 1 to 4 at the end of the present description show in vitro test results obtained in various sets of experiments for the cytotoxic activity of several of the benzazole compounds concerned, including also for reference results for the compound CJM 126 and comparative results for compound DF129, when tested against a range of tumor cell lines which includes ovarian, lung and certain colon and renal cancer cells from the National Cancer Institute (USA) collection. As usual the results are expressed in terms of IS50 values (concentration or dosage required to reduce cell growth or proliferation by 50%) calculated from dose-effect curves plotted for cultures of the cells in question.
(§2) In carrying out the in vitro studies, the cytotoxicity assays may be carried out by a method corresponding substantially to the following example:
(§3) Cells were maintained in a continuous logarithmic culture in Dublecco's medium supplemented with 10% fetal calf serum and penicillin (100 IU/ml) and streptomycin ([…]). The cells were mildly trypsinized for passage and for use in assays. On day zero, 100 μl of trypsinized tumor cells (1×10^4 /ml) were plated in the wells of 96-well flat-bottom microtiter plates. The plates were incubated for 2 days at 37° C. and 5% CO2 in air to allow the cells to adhere and resume exponential growth prior to the addition of drugs.
(§4) On day two 50 μl of the highest drug concentration was added to the wells of column 12 and from there serially diluted 3-fold to column 1 by serial transfer of 50 μl using an 8-channel micropipette. The final volume of column 1 was adjusted to 100 μl. No additions were made to the wells of rows A and B, which served as controls. The plates were further incubated for 5 days at 37° C. and 5% CO2 in air. Each compound was tested in duplicate.
(§5) On day 7 the test was terminated by the addition of 100 μl saline containing 0.002% w/v propidium iodide (Sigma), 0.3% drawing ink (Staedtler "Marsmatic 745"--Trade Mark) and 0.5% Triton X-100. The plates were kept at 4° C. overnight before reading on an inverted microscope equipped with an automated scanning stage. Fluorescence intensity was measured in arbitrary units by a photomultiplier. An HP-87 computer controlled the movement of the stage and also collected and processed the data from the multiplier.
(§6) For each compound tested a dose-response curve was obtained and the IC50 value (the drug concentration at 50% inhibition of cell growth) was calculated.

Series [2] relates to L88. Nature of the series: in vitro inhibition of growth of human lung cancer cell line L88 (Table 1). Type of series: cell-based.
Excerpt: as §1, §2, §3
On day two 50 μl of the highest drug concentration was added to the wells of column 12 and from there serially diluted 3-fold to column 1 by serial transfer of 50 μl using an 8-channel micropipette. The final volume of column 1 was adjusted to 100 μl. No additions were made to the wells of rows A and B, which served as controls. […]
(§7) On day 7 the test was terminated by the addition of 100 μl saline containing 0.002% w/v propidium iodide (Sigma), 0.3% drawing ink (Staedtler "Marsmatic 745"--Trade Mark) and 0.5% Triton X-100. The plates were kept at 4° C. overnight before reading on an inverted microscope equipped with an automated scanning stage. Fluorescence intensity was measured in arbitrary units by a photomultiplier. […]

In series [3] the test system is NCI HOP-92. The series is described as follows: in vitro inhibition of growth of human lung cancer cell line NCI HOP-92 (Table 1). The format is cell-based.
Excerpt: as §1
(§8) In carrying out the in vitro studies, the cytotoxicity assays may be carried out by a method corresponding substantially to the following example: […]
as §7

For series [4], the system named is OVCAR-5. The series is described as follows: in vitro activity against human ovarian cell line OVCAR-5 (Table 2). Type of series: cell-based.
Excerpt: as §1, §8, §7

Series [5] relates to SK-OV-3. The series is described as follows: in vitro activity against human ovarian cell line SK-OV-3 (Table 2). Type of series: cell-based.
Excerpt: as §1, §8, §7

For series [6], the system named is CH1-cisR. The series is described as follows: in vitro activity against human ovarian cell line CH1-cisR (Table 2). The following applies: Homo sapiens, CH1cisR. The format is cell-based.
Excerpt: As usual the results are expressed in terms of IS50 values (concentration or dosage required to reduce cell growth or proliferation by 50%) calculated from dose-effect curves plotted for cultures of the cells in question.
as §2, §3, §4
The plates were kept at 4° C. overnight before reading on an inverted microscope equipped with an automated scanning stage. Fluorescence intensity was measured in arbitrary units by a photomultiplier. An HP-87 computer controlled the movement of the stage and also collected and processed the data from the multiplier.

Series [7] has as its system Colon SW-620. The series is described as follows: in vitro inhibitory activity against human colon cell line SW-620 (Table 3). Type of series: cell-based.
Excerpt: as §1, §8, §7

The test system of series [8] is Renal TK-10. Nature of the series: in vitro inhibitory activity against human renal cell line TK-10 (Table 3). Type of series: cell-based.
Excerpt: as §1, §8, §7

Series [9] has as its system Prostatic PC3 MAZ. The series is described as follows: in vitro inhibitory activity against human prostatic cell line PC3 MAZ (Table 3). The format is cell-based.
Excerpt: as §1, §8, §7

Series [10] has as its system MCF-7wt. Nature of the series: in vitro inhibitory activity against human breast tumour cell line MCF-7wt (Table 4). The settings on record: initial seeding density 2.5 × 10^2 cells/well. The format is cell-based.
Excerpt: as §1, §2, §3, §4, §5, §6
(§9) *Initial seeding density 2.5 × 10^2 cells/well

Series [11] deals with MDA 468. The series is described as follows: in vitro inhibitory activity against human breast tumour cell line MDA 468 (Table 4). The format is cell-based. The settings on record: initial seeding density 2.5 × 10^2 cells/well.
Excerpt: as §1, §2, §3, §4, §5, §6, §9

The subject of series [12] is SDBR3. Nature of the series: in vitro inhibitory activity against human breast tumour cell line SDBR3 (Table 4). Type of series: cell-based. The settings on record: initial seeding density 2.5 × 10^2 cells/well.
Excerpt: as §1, §8, §7

The subject of series [13] is breast carcinoma BO. The series is described as follows: in vivo antitumor test, human breast carcinoma BO xenotransplanted in nude mice. The settings on record: BO. The procedure:
(§10) In one typical set of experiments, four human breast carcinomas xenotransplanted into female Ncr: nu/nu (Taconic, Germantown, U.S.A.) or male Bom: NMRI-nu/nu mice (Bomholtgaard, Ry, Denmark) were used for the evaluation of antitumor activity. Mice weighing 20-25 g at the start of experiments were held under sterile conditions at 24-26° C., 50% relative humidity and 12 hours light-dark rhythm in laminar flow shelves. The animals received autoclaved food and bedding; the drinking water was filtered and acidified (pH4.0).
The following breast carcinoma cell lines were used: BO; MCF-7 (NCI, U.S.A.); MT-1 and MT-3. The tumors BO and MCF-7 are ER^+ models: the carcinomas MT-1 and MT-3 are ER^- ones. Tumors were transplanted subcutaneously (s.c.) as pieces (2×2 mm) into the left flank of 5-8 nude mice/experimental group. Drug treatment was initiated when the tumors reached a diameter of 4-5 mm. Compounds were solubized with Tween 80 (maximum 10% of final volume) and suspended in saline. Suspensions were preparted freshly for each drug administration and injected in a volume of 0.2 mL/20 g body weight employing a once-weekly schedule (x3). Tumor size was measured twice weekly with a caliper. Median tumor volume/group was related to the first treatment day and expressed as Relative Tumor Volume (RTV). For the estimation of toxicity, body weight was determined twice weekly and the mean percentage body weight change (BCC) was calculated. In one experiment blood was obtained from the retroorbital venous plexus of mice and blood cells were determined with a Coulter counter (Model T41). […]

A short description of series [14]: estimation of toxicity in tumor-bearing nude mice (body weight, blood cells, survival). Type of series: in vivo, mouse. Here is the method:
as §10
The following breast carcinoma cell lines were used: BO; MCF-7 (NCI, U.S.A.); MT-1 and MT-3. The tumors BO and MCF-7 are ER^+ models: the carcinomas MT-1 and MT-3 are ER^- ones. Tumors were transplanted subcutaneously (s.c.) as pieces (2×2 mm) into the left flank of 5-8 nude mice/experimental group. Drug treatment was initiated when the tumors reached a diameter of 4-5 mm. Compounds were solubized with Tween 80 (maximum 10% of final volume) and suspended in saline. Suspensions were preparted freshly for each drug administration and injected in a volume of 0.2 mL/20 g body weight employing a once-weekly schedule (x3). Tumor size was measured twice weekly with a caliper. Median tumor volume/group was related to the first treatment day and expressed as Relative Tumor Volume (RTV). For the estimation of toxicity, body weight was determined twice weekly and the mean percentage body weight change (BCC) was calculated. In one experiment blood was obtained from the retroorbital venous plexus of mice and blood cells were determined with a Coulter counter (Model T41).

The mark [15] stands for this setting: MCF-7, optimum dose 200 mg/Kg/inj i.p., qd 12, 19, 26.
The mark [16] stands for this setting: MCF-7, optimum dose 12.5 mg/Kg/inj i.p., qd 12, 19, 26.

In the case of `Nc1ccc(-c2nc3ccccc3s2)cc1I` [DF129, 2-(4'-amino-3'-iodophenyl)benzothiazole], the pIC50 was below 5.00 in series [1]; 7.30 in [2]; above 8.00 in series [3]; 6.52 in series [4]; below 4.00 in series [5]; 4.08 in [6]. In addition, the pIC50 in series [7] was around 4.00; in series [8], above 6.00; in series [9], 4.27; in series [10], above 9.00; in series [11], above 9.00; in [12] it was above 9.00. In addition, the “RTV, relative tumor volume (T/C %)” value in [13] (optimum dose 200 mg/Kg/inj i.p., qd 27, 34, 41 (Table 6), not marked significant) came to 97%. Moreover, the “BWC (body weight change)” value in [14] (BO, optimum dose 200 mg/Kg/inj i.p., qd 27, 34, 41 (Table 6)) is given as -14%; in series [14] (setting [15]), -14%. For the same compound, the “Platelets (% of controls)” value in series [14] (setting [15]) is reported as 106 % of controls. In addition, the “WBC, white blood cells (% of controls)” value in series [14] (setting [15]) is reported as 112 % of controls.
On to `Cc1cc(-c2nc3ccccc3s2)ccc1N` [DF203, 2-(4'-amino-3'-methylphenyl)benzothiazole], for which the pIC50 in series [1] is below 5.00; in [2], 5.22; in series [5], below 4.00; in [6], 4.38; in series [7] it was below 4.00; in series [8], above 6.00. The results for the pIC50 in series [9], in series [10] and in series [11] were below 4.00, above 9.00 and above 9.00, respectively. The evaluation result in series [13] (optimum dose 25 mg/Kg/inj i.p., qd 27, 34, 41) is given as “++ (T/C = 21-35%)”. In [13] (optimum dose 25 mg/Kg/inj i.p., qd 27, 34, 41, marked * significant versus control), the “RTV, relative tumor volume (T/C %)” value was determined as 35%. Further, the “BWC (body weight change)” value in series [14] (BO, optimum dose 25 mg/Kg/inj i.p., qd 27, 34, 41) is recorded as -9%; in series [14] (setting [16]), -12%; in [14] (MT-1, optimum dose 6.25 mg/Kg/inj i.p., qd 7, 14, 21), -3%; in series [14] (MT-3, optimum dose 12.5 mg/Kg/inj i.p., qd 7, 14, 21), -3%. The “Platelets (% of controls)” value in [14] (setting [16]) is on record as 108 % of controls. For the same compound, the “WBC, white blood cells (% of controls)” value in series [14] (setting [16]) is reported as 100 % of controls. Further, in series [14] (MCF-7 test, words), the “overall change in white blood cell or platelet counts” value is listed as “no overall change”. In addition, the bone marrow toxicity result in [14] (mouse, in vivo) is reported as “not dose-limiting”. Also, the survivors result in series [14] (mouse, in vivo, 25 mg/kg) is given as “only one survivor”. The toxicity entry in series [14] (mouse, in vivo, 25 mg/kg) was “toxic”.

One may read the pIC50 as the IC50 on a negative log10 scale, so that one unit is a factor of ten.
